# Assay results: US10730922B2, “Composition and method for affecting the binding of antigen-binding polypeptides to antigens” (Miltenyi Biotec GmbH, priority 2016, dated 2020)
# Experiments:
# Type in all cases: binding, human
# [1] = test system: CD14; assay: Competitive staining of PBMC with anti-CD14 scFv-CaM-fusions, flow cytometry; conditions: peptide in molar excess, FIG. 7A
# Excerpt: (§1) To investigate whether the linkers identified to provide modulation of binding in scFv D1.3 can be used as a “universal” module to change binding properties in other scFv fragments than D1.3, the characterized CaM-linker variants were cloned into other scFv antibodies with different specificities. The specificities were chosen according to their utility in future cell staining and separation applications, with two scFvs directed against different human clusters of differentiation (CD14, CD4) and the small hapten biotin. To identify M13 peptide-dependent scFv-CaM-variants for those specificities, human blood cells (PBMC) were stained using purified scFvs and subsequently analysed by flow cytometry. Bound scFvs were detected with fluorescently labeled anti-His-antibodies.
# (§2) The production and purification of different scFv-fusions was performed as described in Example 3. All antibodies and staining reagents used for flow cytometry applications were from Miltenyi Biotec (Bergisch Gladbach, Germany). For stainings with anti-Biotin scFv-variants, PBMC (peripheral blood mononuclear cells) were prestained with appropriate IgG-conjugates. The stainings were performed in 1.5 mL microtubes. 1×10^6 PBMC per sample were incubated on ice for 10 min in 110 μL 1×B-TBS (1×TBS+0.5% [w/v] bovine serum albumin)+5 mM CaCl2 (pH 7.4) containing anti-CD14-Biotin (dilution: 1:11). The reaction was stopped by addition of 1 mL buffer and centrifugation at 300 g for 5 min at 4° C. The supernatant was removed completely and the pellet was stored on ice and resuspended in buffer immediately before the next staining step. The following stainings were performed in 96-well polypropylene plates. Purified scFvs were diluted to appropriate concentrations in 50 μL 1×B-TBS/5 mM CaCl2 (pH 7.4 [anti-Biotin] or pH 8.0 [anti-CD14, anti-CD4]) per well. For competitive screenings, peptide (M13 peptide [Anaspec, Fremont, USA], M13-variants library and CBP (calmodulin-binding peptide) library [Genscript, Piscataway, USA]) was added in molar excess in a total volume of 5 μL per well, whereas the control stainings were supplied with 5 μL 1×B-TBS/5 mM CaCl2. The diluted scFvs were preincubated for 45 min at RT and afterwards chilled on ice for 5 min. […]
# (§3) Calmodulin binds to a variety of binding partners. […] On the one hand, 38 mutated variants of the M13 peptide were analysed, e.g. substitution mutants known to have higher affinities for calmodulin, truncated variants and combinations thereof. In addition, 29 peptides derived from further calmodulin-binding proteins like calcium ATPase, spectrin and nitric oxidase synthase were analysed with regard to potential binding modulating properties. […]
# [2] = test system: CD4; assay: Competitive staining of PBMC with anti-CD4 scFv-CaM-fusions, flow cytometry; conditions: FIG. 7C
# Excerpt: as §1, §2, §3
# [3] = Competitive staining of anti-CD14-Biotin prestained PBMC with anti-Biotin scFv-CaM-fusions, flow cytometry; conditions: opposite relative to M13 peptide, FIG. 7B
# Excerpt: as §1
# The production and purification of different scFv-fusions was performed as described in Example 3. […]
# as §3
substance,measurement,setting,value
M13-Var5: variant of the known high affinity mutant of M13 (RWKKAFIAVSAANRFKKIS; M13-Var5),"signal change compared to M13 peptide, anti-CD14 scFv clones permutated in the middle of CaM and linear clone",[1],higher signal decrease
"CBP-Var8: calmodulin-binding peptide, a derivative of spectrin (KTASPWKSARLMVHTVATFNSIKE; CBP-Var8; peptide from protein of Homo sapiens)","signal change compared to M13 peptide, anti-CD14 scFv C-terminally permutated and linear variant",[1],slightly higher decrease
M13 peptide: calmodulin-binding peptide M13 (residues 577-602 of skeletal muscle myosin light chain kinase) [reference compound],"change in binding signal, linear anti-CD4 scFv clone",[2],did not have any influence at all
same,"change in binding signal, C-terminally permutated clones of anti-CD4 scFv","[2]; peptide in molar excess, 'the same effect' refers to further increase in fluorescence intensity",increase in binding signal
CBP-Var6: another derivative of calcium-transporting ATPase (RGQILWFRGLNRIQTQIKVVNAFS; CBP-Var6; peptide derived from protein of Gallus gallus),"switching behaviour, anti-Biotin scFv-CaM-fusions M-1, M-2",[3],opposite switching behaviour
same,"change in fluorescence intensity, anti-CD4 scFv M-variants",[2]; relative to M13 peptide,further increase in fluorescence intensity
M13-Var6: variant of the known high affinity mutant of M13 (WKKAFIAVSAANRFKKIS; M13-Var6),"signal change compared to M13 peptide, anti-CD14 scFv clones permutated in the middle of CaM and linear clone",[1],higher signal decrease
CBP-Var10: derived from ionotropic glutamate receptor NMDA1 (KKKATFRAITSTLASSFKRRRSSK; CBP-Var10; peptide from protein of Homo sapiens),"change in binding signal, linear anti-CD4 scFv clone",[2],unexpected decrease in binding signal
M13-Var7: variant of the known high affinity mutant of M13 (RWKKAFIAVSAANRFKKI; M13-Var7),"signal change compared to M13 peptide, anti-CD14 scFv clones permutated in the middle of CaM and linear clone",[1],higher signal decrease
